Assay results taken from ChEMBL document CHEMBL3792304 (Eur J Med Chem, 2016).

What was measured:
Hepatitis C virus [1] = test: Antiviral activity against HCV subtype 1b by replicon assay; type: functional, organism-based, Hepacivirus hominis; details: genotype 1b
Hepatitis C virus [2] = test: Antiviral activity against Hepatitis C virus genotype 1b infected in human Huh7ET cells expressing LucUbiNeo fusion protein measured after 2 days by luciferase Bright-Glo assay; type: functional, organism-based, Hepacivirus hominis; details: Huh-7, 48 h
[3] = Cytotoxicity against human Huh7ET cells expressing LucUbiNeo fusion protein measured after 4 hrs at 37 degC by MTT assay; type: cell-based, Huh-7
[4] = Selectivity index, ratio of CC50 for human Huh7ET cells expressing LucUbiNeo fusion protein to EC50 for Hepatitis C virus genotype 1b infected in human […] cells; type: toxicity, cell-based; details: read-out: Ratio CC50/EC50

Structure (SMILES): CC(C)OC(=O)[C@H](C)NP(=O)(OC[C@H]1O[C@@H](n2ccc(=O)[nH]c2=O)[C@](C)(F)[C@@H]1O)Oc1ccccc1 (some centres not stated)
- EC50 (Hepatitis C virus [1]): 0.048 µM

Structure (SMILES): Cn1c(=O)c(-c2c(Cl)cccc2Cl)cc2cnc(Nc3ccccc3)nc21
- EC50 (Hepatitis C virus [2]): 0.23 µM
- CC50 at 4 h [3]: 0.9 µM

Structure (SMILES): Cn1c(=O)c(-c2ccccc2)cc2c(N)nc(Nc3ccccc3)nc21
- EC50 (Hepatitis C virus [2]): 0.9 µM
- CC50 at 4 h [3]: 23.5 µM

Structure (SMILES): Cn1c(=O)c(-c2c(Br)cccc2Br)cc2c(N)nc(Nc3ccccc3)nc21
- EC50 (Hepatitis C virus [2]): 0.3 µM
- CC50 at 4 h [3]: 0.8 µM

Structure (SMILES): Cn1c(=O)c(-c2c(F)cccc2C(F)(F)F)cc2c(N)nc(Nc3ccccc3)nc21
- EC50 (Hepatitis C virus [2]): 2.8 µM
- CC50 at 4 h [3]: 6.3 µM

Structure (SMILES): O=C1Nc2nc(Nc3ccccc3)nc(On3nnc4ccccc43)c2CC1c1ccc(F)cc1 (configuration not stated)
- EC50 (Hepatitis C virus [2]): 1.28 µM
- CC50 at 4 h [3]: 12.2 µM

Structure (SMILES): O=C1Nc2nc(NCc3ccccc3)[nH]c(=O)c2CC1c1c(Cl)cccc1Cl (configuration not stated)
- EC50 (Hepatitis C virus [2]): 9.6 µM
- CC50 at 4 h [3]: 69 µM

Structure (SMILES): Nc1nc(Nc2ccccc2)nc2[nH]c(=O)c(-c3c(F)cccc3F)cc12
- EC50 (Hepatitis C virus [2]): 17.5 µM
- CC50 at 4 h [3]: 2.4 µM

Structure (SMILES): CCCCn1c(=O)c(-c2c(Cl)cccc2Cl)cc2c(N)nc(Nc3ccccc3)nc21
- EC50 (Hepatitis C virus [2]): 11.9 µM

Structure (SMILES): O=C1Nc2nc(Nc3ccccc3)nc(On3nnc4ccccc43)c2CC1c1ccc(Cl)cc1Cl (configuration not stated)
- EC50 (Hepatitis C virus [2]): 1.35 µM
- CC50 at 4 h [3]: 5.5 µM

Structure (SMILES): Cn1c(=O)c(-c2c(F)cccc2F)cc2c(N)nc(Nc3ccccc3)nc21
- EC50 (Hepatitis C virus [2]): 0.16 µM
- CC50 at 4 h [3]: 10.4 µM

Structure (SMILES): CSc1nc2c(c(=O)[nH]1)CC(Cc1ccccc1)C(=O)N2 (configuration not stated)
- EC50 (Hepatitis C virus [2]): 11.2 µM
- CC50 at 4 h [3]: 38.3 µM

Structure (SMILES): COCCOc1nc(N)nc2c1CC(c1c(Cl)cccc1Cl)C(=O)N2 (configuration not stated)
- EC50 (Hepatitis C virus [2]): 22 µM
- CC50 at 4 h [3]: 65 µM

Structure (SMILES): O=c1[nH]c2nc(Nc3ccccc3)[nH]c(=O)c2cc1-c1ccc(F)cc1
- selectivity ratio [4]: 397
- EC50 (Hepatitis C virus [2]): 0.034 µM
- CC50 at 4 h [3]: 13.5 µM

Structure (SMILES): O=C1Nc2nc(Nc3ccccc3)[nH]c(=O)c2CC1c1c(F)cccc1F (configuration not stated)
- selectivity ratio [4]: 196
- EC50 (Hepatitis C virus [2]): 0.027 µM
- CC50 at 4 h [3]: 5.3 µM

Structure (SMILES): COc1ccc(Nc2nc3[nH]c(=O)c(-c4ccc(F)cc4)cc3c(=O)[nH]2)cc1
- EC50 (Hepatitis C virus [2]): 9.4 µM
- CC50 at 4 h [3]: 46 µM

Structure (SMILES): Cn1c(=O)c(-c2c(Cl)cccc2Cl)cc2c(N)nc(N)nc21
- EC50 (Hepatitis C virus [2]): 16.7 µM
- CC50 at 4 h [3]: 120 µM

Structure (SMILES): CCCCCNc1nc(N)nc2c1cc(-c1ccc(F)cc1)c(=O)n2C
- EC50 (Hepatitis C virus [2]): 20.9 µM
- CC50 at 4 h [3]: 79.8 µM

Structure (SMILES): CCCOCCNc1nc(Nc2ccccc2)nc2c1cc(-c1c(Cl)cccc1Cl)c(=O)n2C
- EC50 (Hepatitis C virus [2]): 5.1 µM
- CC50 at 4 h [3]: 84.7 µM

Structure (SMILES): CCCn1c(=O)c(-c2c(Cl)cccc2Cl)cc2c(N)nc(Nc3ccccc3)nc21
- EC50 (Hepatitis C virus [2]): 1.4 µM
- CC50 at 4 h [3]: 181 µM

Structure (SMILES): CCCOCCNc1nc(Oc2ccccc2)nc2[nH]c(=O)c(-c3ccc(F)cc3)cc12
- EC50 (Hepatitis C virus [2]): 3.3 µM
- CC50 at 4 h [3]: 79.8 µM

Structure (SMILES): CCn1c(=O)c(-c2c(Cl)cccc2Cl)cc2c(N)nc(Nc3ccccc3)nc21
- EC50 (Hepatitis C virus [2]): 6.3 µM

Structure (SMILES): CCCOCCNc1nc(N)nc2c1cc(-c1ccc(F)cc1)c(=O)n2C
- EC50 (Hepatitis C virus [2]): 4.7 µM
- CC50 at 4 h [3]: 54.3 µM

Structure (SMILES): CCCOCCOc1nc(N)nc2c1cc(-c1c(Cl)cccc1Cl)c(=O)n2C
- EC50 (Hepatitis C virus [2]): 10.4 µM
- CC50 at 4 h [3]: 50.1 µM

Structure (SMILES): CC(C)Cn1c(=O)c(-c2c(Cl)cccc2Cl)cc2c(N)nc(Nc3ccccc3)nc21
- EC50 (Hepatitis C virus [2]): 0.22 µM
- CC50 at 4 h [3]: 185 µM

Structure (SMILES): Nc1nc(Nc2ccccc2)nc2[nH]c(=O)c(-c3ccccc3)cc12
- EC50 (Hepatitis C virus [2]): 0.49 µM
- CC50 at 4 h [3]: 13.8 µM

Structure (SMILES): CCCCCNc1nc(N)nc2[nH]c(=O)c(-c3c(Cl)cccc3Cl)cc12
- EC50 (Hepatitis C virus [2]): 3.2 µM
- CC50 at 4 h [3]: 11 µM

Structure (SMILES): CCCOCCNc1nc(Nc2ccccc2)nc2c1CC(c1c(Cl)cccc1Cl)C(=O)N2 (configuration not stated)
- EC50 (Hepatitis C virus [2]): 12.4 µM
- CC50 at 4 h [3]: 50.5 µM

Structure (SMILES): COCCn1c(=O)c(-c2c(Cl)cccc2Cl)cc2c(N)nc(Nc3ccccc3)nc21
- EC50 (Hepatitis C virus [2]): 0.99 µM
- CC50 at 4 h [3]: 241 µM

Structure (SMILES): Nc1nc(Nc2ccccc2)nc2[nH]c(=O)c(-c3c(Br)cccc3Br)cc12
- EC50 (Hepatitis C virus [2]): 7.7 µM
- CC50 at 4 h [3]: 166 µM

Structure (SMILES): Nc1nc(Nc2ccccc2)nc2c1cc(-c1c(Cl)cccc1Cl)c(=O)n2CCO
- EC50 (Hepatitis C virus [2]): 2.3 µM
- CC50 at 4 h [3]: 29.3 µM

Structure (SMILES): CCCOCCNc1nc(N)nc2[nH]c(=O)c(-c3ccc(F)cc3)cc12
- EC50 (Hepatitis C virus [2]): 2.1 µM
- CC50 at 4 h [3]: 130 µM

Structure (SMILES): O=C1Nc2nc(Oc3ccccc3)nc(On3nnc4ccccc43)c2CC1c1ccc(F)cc1 (configuration not stated)
- EC50 (Hepatitis C virus [2]): 18.6 µM
- CC50 at 4 h [3]: 62.7 µM

Structure (SMILES): Cn1c(=O)c(-c2ccc(F)cc2)cc2c(N3CCCC3)nc(N)nc21
- EC50 (Hepatitis C virus [2]): 10.5 µM
- CC50 at 4 h [3]: 111 µM
